How the values were obtained:
Format in all cases: in vivo
cows [1] = assay: Liver triglyceride levels in transition cows (post-calving liver biopsies); settings: all treatment regimens (0.5 mg/kg); Days 5, 10 and 14 postcalving
Description: (§1) To determine negative energy balance, serum concentrations of NEFAs or ketone bodies, or levels of triglycerides in liver tissues, are measured. Higher than ‘normal’ levels of NEFA's and/or triglycerides and/or ketone bodies are indicators of negative energy balance. Levels considered ‘higher than normal’ or ‘excessive’ are: • NEFA's >800 μmol/L in serum. • Triglycerides >10% w/w in liver tissue. • Ketone bodies […] in serum. Determination of Changes in Blood Non-Esterified Fatty Acid (NEFA) Concentrations and Liver Triglycerides Levels:
(§2) Compounds were administered once or several times in the transition period at dose levels predicted to be effective by comparing results of in-vitro receptor affinity tests in laboratory species and pharmacokinetic evaluations in cattle. NEFA levels were determined via standard laboratory methods, for example, using the commercial WAKO NEFA kit (Wako Chemical Co., USA, Dallas, Tex., 994-75409), and liver triglyceride content was determined using the method as described in the literature (J. K. Drackley, J. J. Veenhuizen, M. J. Richard and J. W. Young, J Dairy Sci, 1991, 74, 4254)). […]
(§3) As soon as possible post-calving (˜30 minutes) the cow was transferred to the freestall barn for the next scheduled milking (6:00 hrs and 19:00 hrs). […] Pre and post-calving NEFA samples were analyzed using the WAKO NEFA-C test kit (#994-75409). […]

Holstein cows = assay: Milk yield and milk quality study in pregnant, non-lactating Holstein cows; settings: approximately 0.5 mg/kg subcutaneous on day of calving and day five post-calving
Description: Machines to assay for milk protein, fat, or lactose content are commercially available (MilkoScan™ 50, MilkoScan™ 4000, MilkoScan™ FT 6000 available from Foss Group). Machines to assay for somatic cell content are also commercially available (Fossomatic™ FC, Fossomatic™ Minor available from Foss Group).
One hundred twenty four pregnant, non-lactating Holstein cows were allocated to two treatment groups (placebo and COMPOUND at approximately 0.5 mg/kg). Animals were allowed to calve, treated by subcutaneous injection on the day of calving and on day five post-calving. Disease events and daily milk production were recorded for the following sixty days. The average daily milk yield in the treated cows was increased from 41.8 to 43.2 kg/day (p=0.052). There was also a significant beneficial effect on milk quality (increased protein and lactose yield, decreased somatic cell count). Results are shown in the FIG. 3 and FIG. 4, where COMPOUND represents Compound Z.

cows [2] = assay: Changes in blood non-esterified fatty acid (NEFA) concentrations in transition cows
Description: as §1, §2, §3

[3] = versus placebo, significant beneficial effect

SMILES: CC(C)(Oc1cccc([C@@H]2CCCN(C(=O)OCc3ccc(C(F)(F)F)cc3)C2)c1)C(=O)O [Compound Z, (3S)-3-[3-(1-Carboxy-1-methyl-ethoxy)-phenyl]-piperidine-1-carboxylic acid 4-trifluoromethyl-benzyl ester]
- liver triglyceride levels compared to placebo (cows [1]): significantly lowered
- average daily milk yield (Holstein cows; sixty days recording, placebo 41.8, p=0.052): 43.2 kg/day
- milk quality: lactose yield (Holstein cows; [3]): increased
- milk quality: protein yield (Holstein cows; [3]): increased
- milk quality: somatic cell count (Holstein cows; [3]): decreased
- serum NEFA levels as compared to controls (cows [2]; all animals treated with Compound Z (T02, T03, T04; 0.5 mg/kg), from Day 1 (after calving) until Day 6 of the study): significantly lower
- serum NEFA levels compared to controls (cows [2]; treatment group T03 (0.5 mg/kg at calving and post partum eod 4 doses), all timepoints): significantly lower

— patent US20070281935A1, “Use” (PFIZER INC., priority 2004, published 2007)
